Assays:
[1] = molecular target: 5'-AMP-activated protein kinase catalytic subunit alpha-1 (Homo sapiens) (UniProt Q13131); conditions: Compound concentration 1000.0 nM
[2] = molecular target: Bone morphogenetic protein receptor type-1A (Homo sapiens) (UniProt P36894); conditions: Compound concentration 1000.0 nM
[3] = system: Serine/threonine-protein kinase B-raf (Homo sapiens), P15056 [V600E]; conditions: Compound concentration 1000.0 nM
[4] = molecular target: Serine/threonine-protein kinase BRSK1 (Homo sapiens) (UniProt Q8TDC3); conditions: Compound concentration 1000.0 nM
[5] = molecular target: Calcium/calmodulin-dependent protein kinase type II subunit delta (Homo sapiens) (UniProt Q13557); conditions: Compound concentration 1000.0 nM
[6] = molecular target: Cyclin-dependent kinase 8 (Homo sapiens, UniProt P49336); conditions: Compound concentration 1000.0 nM
[7] = molecular target: Citron Rho-interacting kinase (Homo sapiens) (UniProt O14578); conditions: Compound concentration 1000.0 nM
[8] = molecular target: Casein kinase I isoform alpha-like (Homo sapiens) (UniProt Q8N752); conditions: Compound concentration 1000.0 nM
[9] = molecular target: Casein kinase I isoform gamma-2 (Homo sapiens) (UniProt P78368); conditions: Compound concentration 1000.0 nM
[10] = molecular target: Casein kinase II subunit alpha (Homo sapiens) (UniProt P68400); conditions: Compound concentration 1000.0 nM
[11] = molecular target: Megakaryocyte-associated tyrosine-protein kinase (Homo sapiens) (UniProt P42679); conditions: Compound concentration 1000.0 nM
[12] = molecular target: Ephrin type-A receptor 3 (Homo sapiens) (UniProt P29320); conditions: Compound concentration 1000.0 nM
[13] = molecular target: Mitogen-activated protein kinase 4 (Homo sapiens) (UniProt P31152); conditions: Compound concentration 1000.0 nM
[14] = molecular target: Fibroblast growth factor receptor 1 (Homo sapiens) (UniProt P11362); conditions: Compound concentration 1000.0 nM
[15] = molecular target: Vascular endothelial growth factor receptor 3 (Homo sapiens) (UniProt P35916); conditions: Compound concentration 1000.0 nM
[16] = molecular target: Glycogen synthase kinase-3 alpha (Homo sapiens) (UniProt P49840); conditions: Compound concentration 1000.0 nM
[17] = molecular target: Serine/threonine-protein kinase ICK (Homo sapiens) (UniProt Q9UPZ9); conditions: Compound concentration 1000.0 nM
[18] = molecular target: Insulin-like growth factor 1 receptor (Homo sapiens) (UniProt P08069); conditions: Compound concentration 1000.0 nM
[19] = molecular target: Mitogen-activated protein kinase 9 (Homo sapiens) (UniProt P45984); conditions: Compound concentration 1000.0 nM
[20] = system: Mast/stem cell growth factor receptor Kit (Homo sapiens), P10721 [V559D,V654A]; conditions: Compound concentration 1000.0 nM
[21] = molecular target: Tyrosine-protein kinase Lck (Homo sapiens) (UniProt P06239); conditions: Compound concentration 1000.0 nM
[22] = molecular target: Mitogen-activated protein kinase kinase kinase 15 (Homo sapiens) (UniProt Q6ZN16); conditions: Compound concentration 1000.0 nM
[23] = molecular target: Mitogen-activated protein kinase kinase kinase 2 (Homo sapiens) (UniProt Q9Y2U5); conditions: Compound concentration 1000.0 nM
[24] = molecular target: Serine/threonine-protein kinase MARK1 (Homo sapiens) (UniProt Q9P0L2); conditions: Compound concentration 1000.0 nM
[25] = molecular target: Microtubule-associated serine/threonine-protein kinase 1 (Homo sapiens) (UniProt Q9Y2H9); conditions: Compound concentration 1000.0 nM
[26] = molecular target: Hepatocyte growth factor receptor (Homo sapiens) (UniProt P08581); conditions: Compound concentration 1000.0 nM
[27] = molecular target: Misshapen-like kinase 1 (Homo sapiens) (UniProt Q8N4C8); conditions: Compound concentration 1000.0 nM
[28] = molecular target: MAP kinase-interacting serine/threonine-protein kinase 2 (Homo sapiens) (UniProt Q9HBH9); conditions: Compound concentration 1000.0 nM
[29] = molecular target: Serine/threonine-protein kinase 24 (Homo sapiens) (UniProt Q9Y6E0); conditions: Compound concentration 1000.0 nM
[30] = molecular target: Serine/threonine-protein kinase Nek11 (Homo sapiens) (UniProt Q8NG66); conditions: Compound concentration 1000.0 nM
[31] = molecular target: Serine/threonine-protein kinase Nek6 (Homo sapiens) (UniProt Q9HC98); conditions: Compound concentration 1000.0 nM
[32] = molecular target: Mitogen-activated protein kinase 14 (Homo sapiens) (UniProt Q16539); conditions: Compound concentration 1000.0 nM
[33] = molecular target: Serine/threonine-protein kinase PAK 5 (Homo sapiens) (UniProt Q9P286); conditions: Compound concentration 1000.0 nM
[34] = molecular target: Phosphatidylinositol 3-kinase C2 domain-containing subunit gamma (Homo sapiens) (UniProt O75747); conditions: Compound concentration 1000.0 nM
[35] = molecular target: Phosphatidylinositol 4,5-bisphosphate 3-kinase catalytic subunit gamma isoform (Homo sapiens) (UniProt P48736); conditions: Compound concentration 1000.0 nM
[36] = molecular target: Serine/threonine-protein kinase pim-3 (Homo sapiens) (UniProt Q86V86); conditions: Compound concentration 1000.0 nM
[37] = molecular target: Protein kinase C theta type (Homo sapiens) (UniProt Q04759); conditions: Compound concentration 1000.0 nM
[38] = molecular target: Serine/threonine-protein kinase RIO3 (Homo sapiens) (UniProt O14730); conditions: Compound concentration 1000.0 nM
[39] = molecular target: STE20-like serine/threonine-protein kinase (Homo sapiens) (UniProt Q9H2G2); conditions: Compound concentration 1000.0 nM
[40] = molecular target: Serine/threonine-protein kinase TAO2 (Homo sapiens) (UniProt Q9UL54); conditions: Compound concentration 1000.0 nM
[41] = molecular target: Serine/threonine-protein kinase WNK2 (Homo sapiens) (UniProt Q9Y3S1); conditions: Compound concentration 1000.0 nM
[42] = molecular target: Serine/threonine-protein kinase WNK3 (Homo sapiens) (UniProt Q9BYP7); conditions: Compound concentration 1000.0 nM
[43] = molecular target: Serine/threonine-protein kinase WNK4 (Homo sapiens) (UniProt Q96J92); conditions: Compound concentration 1000.0 nM
[44] = molecular target: Sodium-dependent dopamine transporter (Homo sapiens) (UniProt Q01959); conditions: Compound concentration 10.0 uM
[45] = molecular target: Delta-type opioid receptor (Homo sapiens) (UniProt P41143); conditions: Compound concentration 10.0 uM

Sequence of Serine/threonine-protein kinase PAK 5 (Homo sapiens) (Q9P286 whole entry, looked up, the tested form may be a part): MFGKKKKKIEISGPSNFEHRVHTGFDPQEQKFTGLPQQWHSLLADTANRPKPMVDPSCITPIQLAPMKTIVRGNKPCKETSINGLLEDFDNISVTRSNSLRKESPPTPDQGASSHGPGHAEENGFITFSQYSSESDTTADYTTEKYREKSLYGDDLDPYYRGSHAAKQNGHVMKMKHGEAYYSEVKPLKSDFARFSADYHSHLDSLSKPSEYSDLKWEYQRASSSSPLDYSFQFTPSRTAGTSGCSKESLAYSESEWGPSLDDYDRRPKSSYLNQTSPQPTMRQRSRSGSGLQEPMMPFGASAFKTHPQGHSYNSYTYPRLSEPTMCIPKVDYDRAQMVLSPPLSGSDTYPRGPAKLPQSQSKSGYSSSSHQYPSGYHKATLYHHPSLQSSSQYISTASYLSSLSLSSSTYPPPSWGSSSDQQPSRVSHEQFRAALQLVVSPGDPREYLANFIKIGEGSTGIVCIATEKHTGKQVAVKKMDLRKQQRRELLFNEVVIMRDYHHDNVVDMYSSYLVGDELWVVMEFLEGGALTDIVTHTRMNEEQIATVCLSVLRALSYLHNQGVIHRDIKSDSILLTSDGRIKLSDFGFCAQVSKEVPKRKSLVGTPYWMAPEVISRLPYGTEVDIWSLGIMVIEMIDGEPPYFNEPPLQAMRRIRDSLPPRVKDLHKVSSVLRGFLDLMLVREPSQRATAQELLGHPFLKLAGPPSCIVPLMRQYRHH
Sequence of Serine/threonine-protein kinase TAO2 (Homo sapiens) (Q9UL54 whole entry): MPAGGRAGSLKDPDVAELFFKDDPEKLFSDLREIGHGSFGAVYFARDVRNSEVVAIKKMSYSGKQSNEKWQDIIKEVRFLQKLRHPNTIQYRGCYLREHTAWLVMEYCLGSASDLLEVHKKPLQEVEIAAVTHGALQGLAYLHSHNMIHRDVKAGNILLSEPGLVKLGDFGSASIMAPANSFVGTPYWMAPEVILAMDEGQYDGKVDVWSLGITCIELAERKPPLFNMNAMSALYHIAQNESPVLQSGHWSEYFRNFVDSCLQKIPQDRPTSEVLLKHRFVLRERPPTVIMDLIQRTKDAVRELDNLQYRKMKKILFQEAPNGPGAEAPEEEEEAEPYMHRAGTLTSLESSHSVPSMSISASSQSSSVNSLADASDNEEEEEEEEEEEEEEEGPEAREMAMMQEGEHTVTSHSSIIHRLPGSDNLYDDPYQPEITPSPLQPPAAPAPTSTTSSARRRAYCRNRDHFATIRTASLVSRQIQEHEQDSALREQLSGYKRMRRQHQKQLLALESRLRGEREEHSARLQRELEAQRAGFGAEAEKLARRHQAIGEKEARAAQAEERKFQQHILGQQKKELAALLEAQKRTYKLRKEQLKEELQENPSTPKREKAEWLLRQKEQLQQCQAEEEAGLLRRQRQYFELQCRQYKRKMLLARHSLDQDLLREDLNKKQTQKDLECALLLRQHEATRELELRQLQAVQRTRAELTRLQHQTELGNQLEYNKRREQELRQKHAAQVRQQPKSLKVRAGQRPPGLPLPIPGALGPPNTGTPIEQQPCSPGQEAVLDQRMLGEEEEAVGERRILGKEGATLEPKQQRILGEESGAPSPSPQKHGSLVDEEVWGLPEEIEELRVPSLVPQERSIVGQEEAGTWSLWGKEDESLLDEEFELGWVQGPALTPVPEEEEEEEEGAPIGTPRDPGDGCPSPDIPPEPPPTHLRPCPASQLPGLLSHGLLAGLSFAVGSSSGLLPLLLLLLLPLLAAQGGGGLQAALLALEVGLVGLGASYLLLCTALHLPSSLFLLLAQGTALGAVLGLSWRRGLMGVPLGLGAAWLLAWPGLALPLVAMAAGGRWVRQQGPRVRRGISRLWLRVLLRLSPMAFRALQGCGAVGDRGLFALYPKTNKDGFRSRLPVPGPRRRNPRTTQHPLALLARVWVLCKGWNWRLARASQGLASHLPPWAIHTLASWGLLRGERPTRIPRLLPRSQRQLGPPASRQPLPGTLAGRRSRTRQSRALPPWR
Sequence of Misshapen-like kinase 1 (Homo sapiens) (Q8N4C8 whole entry, looked up): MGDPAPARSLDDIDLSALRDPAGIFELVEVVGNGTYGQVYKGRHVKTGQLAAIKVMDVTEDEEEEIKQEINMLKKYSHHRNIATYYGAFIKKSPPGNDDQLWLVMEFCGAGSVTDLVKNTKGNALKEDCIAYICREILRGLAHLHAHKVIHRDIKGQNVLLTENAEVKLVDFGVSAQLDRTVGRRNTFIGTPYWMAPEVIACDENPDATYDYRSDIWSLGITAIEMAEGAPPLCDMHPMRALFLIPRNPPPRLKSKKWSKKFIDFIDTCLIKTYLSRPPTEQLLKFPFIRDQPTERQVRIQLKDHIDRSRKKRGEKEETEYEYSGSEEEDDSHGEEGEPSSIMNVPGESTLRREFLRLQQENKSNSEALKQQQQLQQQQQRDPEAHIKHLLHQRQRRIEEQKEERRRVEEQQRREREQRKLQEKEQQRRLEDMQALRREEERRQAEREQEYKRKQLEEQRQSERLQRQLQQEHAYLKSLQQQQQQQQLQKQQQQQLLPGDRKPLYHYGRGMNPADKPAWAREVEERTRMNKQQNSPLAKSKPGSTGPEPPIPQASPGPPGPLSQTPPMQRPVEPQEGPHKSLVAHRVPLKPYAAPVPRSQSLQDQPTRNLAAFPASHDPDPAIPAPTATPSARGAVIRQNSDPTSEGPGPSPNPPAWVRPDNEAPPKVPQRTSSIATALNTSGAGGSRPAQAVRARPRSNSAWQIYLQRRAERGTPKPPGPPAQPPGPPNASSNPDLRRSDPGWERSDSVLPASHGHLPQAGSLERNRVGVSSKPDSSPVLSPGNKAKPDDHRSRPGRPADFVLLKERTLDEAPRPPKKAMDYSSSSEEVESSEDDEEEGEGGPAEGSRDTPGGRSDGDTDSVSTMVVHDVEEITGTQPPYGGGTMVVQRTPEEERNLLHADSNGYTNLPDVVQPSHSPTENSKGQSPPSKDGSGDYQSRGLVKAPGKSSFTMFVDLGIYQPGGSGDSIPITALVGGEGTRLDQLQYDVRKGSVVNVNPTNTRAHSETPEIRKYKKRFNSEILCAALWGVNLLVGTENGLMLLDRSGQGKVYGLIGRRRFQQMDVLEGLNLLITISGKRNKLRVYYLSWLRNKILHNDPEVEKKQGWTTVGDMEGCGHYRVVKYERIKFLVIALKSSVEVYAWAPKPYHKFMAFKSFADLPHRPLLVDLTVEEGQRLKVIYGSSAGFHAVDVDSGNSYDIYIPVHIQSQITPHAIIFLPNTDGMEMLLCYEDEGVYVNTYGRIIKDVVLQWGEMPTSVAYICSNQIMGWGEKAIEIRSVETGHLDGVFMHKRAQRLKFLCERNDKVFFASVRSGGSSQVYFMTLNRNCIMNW
Sequence of Ephrin type-A receptor 3 (Homo sapiens) (P29320 whole entry): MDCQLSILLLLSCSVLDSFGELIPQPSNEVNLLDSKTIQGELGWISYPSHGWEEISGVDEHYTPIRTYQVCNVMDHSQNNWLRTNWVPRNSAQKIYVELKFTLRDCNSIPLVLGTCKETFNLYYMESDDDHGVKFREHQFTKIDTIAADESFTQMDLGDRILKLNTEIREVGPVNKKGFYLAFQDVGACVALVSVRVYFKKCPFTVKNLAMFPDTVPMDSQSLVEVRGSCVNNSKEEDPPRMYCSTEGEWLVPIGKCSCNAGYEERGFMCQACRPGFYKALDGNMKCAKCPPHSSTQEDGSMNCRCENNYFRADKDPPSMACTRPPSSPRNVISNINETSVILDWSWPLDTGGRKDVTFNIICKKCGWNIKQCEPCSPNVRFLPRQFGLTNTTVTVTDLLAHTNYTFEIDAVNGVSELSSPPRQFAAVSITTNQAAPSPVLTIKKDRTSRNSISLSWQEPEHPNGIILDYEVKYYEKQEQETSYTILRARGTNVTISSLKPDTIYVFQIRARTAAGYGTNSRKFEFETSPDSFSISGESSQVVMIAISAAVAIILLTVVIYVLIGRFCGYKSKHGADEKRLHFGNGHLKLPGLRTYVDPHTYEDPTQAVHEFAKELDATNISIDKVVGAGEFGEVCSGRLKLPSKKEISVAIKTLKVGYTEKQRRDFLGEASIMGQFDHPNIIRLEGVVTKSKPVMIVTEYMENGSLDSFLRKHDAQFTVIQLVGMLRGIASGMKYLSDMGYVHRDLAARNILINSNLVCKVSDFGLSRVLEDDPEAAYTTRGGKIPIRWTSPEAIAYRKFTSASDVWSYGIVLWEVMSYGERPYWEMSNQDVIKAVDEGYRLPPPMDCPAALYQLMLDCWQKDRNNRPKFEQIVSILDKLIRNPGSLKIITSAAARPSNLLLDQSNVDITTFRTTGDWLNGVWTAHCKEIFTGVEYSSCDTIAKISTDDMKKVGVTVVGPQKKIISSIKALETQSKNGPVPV
Sequence of Serine/threonine-protein kinase 24 (Homo sapiens) (Q9Y6E0 whole entry, looked up): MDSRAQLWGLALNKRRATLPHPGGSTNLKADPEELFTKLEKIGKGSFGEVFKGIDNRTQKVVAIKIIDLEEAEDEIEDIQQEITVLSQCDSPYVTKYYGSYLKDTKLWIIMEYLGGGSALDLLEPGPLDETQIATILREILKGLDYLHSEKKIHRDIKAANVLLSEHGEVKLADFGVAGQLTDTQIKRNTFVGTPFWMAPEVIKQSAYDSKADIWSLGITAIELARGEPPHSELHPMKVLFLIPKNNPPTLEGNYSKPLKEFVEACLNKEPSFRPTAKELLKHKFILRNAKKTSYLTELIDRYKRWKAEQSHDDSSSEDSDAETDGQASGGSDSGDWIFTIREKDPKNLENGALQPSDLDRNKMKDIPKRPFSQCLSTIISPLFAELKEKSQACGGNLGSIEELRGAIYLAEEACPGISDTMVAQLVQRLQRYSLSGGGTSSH
Sequence of Serine/threonine-protein kinase Nek6 (Homo sapiens) (Q9HC98 whole entry): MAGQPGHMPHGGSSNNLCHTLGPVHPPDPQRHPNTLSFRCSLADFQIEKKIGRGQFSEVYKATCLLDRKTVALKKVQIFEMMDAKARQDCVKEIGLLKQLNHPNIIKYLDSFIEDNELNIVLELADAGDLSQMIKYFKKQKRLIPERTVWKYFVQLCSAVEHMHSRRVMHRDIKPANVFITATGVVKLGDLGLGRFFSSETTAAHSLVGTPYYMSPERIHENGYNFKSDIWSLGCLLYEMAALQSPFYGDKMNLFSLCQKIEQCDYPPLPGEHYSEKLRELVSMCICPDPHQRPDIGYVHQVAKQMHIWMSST

O=c1nc(-c2ccccn2)sc2ccccc12 [BTZO-1]
residual activity [1]: 100%
residual activity [2]: 100%
residual activity [3]: 100%
residual activity [4]: 91%
residual activity [5]: 90%
residual activity [6]: 36%
residual activity [7]: 100%
residual activity [8]: 100%
residual activity [9]: 74%
residual activity [10]: 68%
residual activity [11]: 100%
residual activity [12]: 87%
residual activity [13]: 100%
residual activity [14]: 100%
residual activity [15]: 84%
residual activity [16]: 82%
residual activity [17]: 83%
residual activity [18]: 80%
residual activity [19]: 100%
residual activity [20]: 100%
residual activity [21]: 95%
residual activity [22]: 100%
residual activity [23]: 92%
residual activity [24]: 100%
residual activity [25]: 73%
residual activity [26]: 74%
residual activity [27]: 83%
residual activity [28]: 100%
residual activity [29]: 100%
residual activity [30]: 100%
residual activity [31]: 100%
residual activity [32]: 94%
residual activity [33]: 87%
residual activity [34]: 100%
residual activity [35]: 100%
residual activity [36]: 100%
residual activity [37]: 90%
residual activity [38]: 99%
residual activity [39]: 85%
residual activity [40]: 73%
residual activity [41]: 100%
residual activity [42]: 100%
residual activity [43]: 100%
inhibition [44]: -3.83%
inhibition [45]: 4.81%

O=C1NC(c2ccccn2)Sc2ccccc21 (stereo not given) [BTZO-4]
residual activity [1]: 100%
residual activity [2]: 100%
residual activity [3]: 94%
residual activity [4]: 76%
residual activity [5]: 75%
residual activity [6]: 78%
residual activity [7]: 96%
residual activity [8]: 89%
residual activity [9]: 88%
residual activity [10]: 61%
residual activity [11]: 100%
residual activity [12]: 100%
residual activity [13]: 86%
residual activity [14]: 85%
residual activity [15]: 70%
residual activity [16]: 73%
residual activity [17]: 86%
residual activity [18]: 80%
residual activity [19]: 100%
residual activity [20]: 87%
residual activity [21]: 80%
residual activity [22]: 85%
residual activity [23]: 82%
residual activity [24]: 99%
residual activity [25]: 91%
residual activity [26]: 68%
residual activity [27]: 72%
residual activity [28]: 100%
residual activity [29]: 94%
residual activity [30]: 95%
residual activity [31]: 84%
residual activity [32]: 81%
residual activity [33]: 94%
residual activity [34]: 100%
residual activity [35]: 91%
residual activity [36]: 100%
residual activity [37]: 76%
residual activity [38]: 91%
residual activity [39]: 76%
residual activity [40]: 71%
residual activity [41]: 100%
residual activity [42]: 100%
residual activity [43]: 100%
inhibition [44]: -2.05%
inhibition [45]: -0.624%
